Measurements as given in ChEMBL document CHEMBL5226336, “Design, Synthesis, and Evaluation of [18F]T-914 as a Novel Positron-Emission Tomography Tracer for Lysine-Specific Demethylase 1” (J Med Chem, 2021).
Active and inactive are the calls of the source. The calls are words filed in the database; no cut-off is given here.

How the values were obtained:
[1] = Unbound drug concentration in cynomolgus monkey plasma assessed as free fraction ratio; type: ADME, cell-free, Macaca fascicularis
[2] = target: T1, Amine oxidase [flavin-containing] A (Homo sapiens, UniProt P21397); experiment: Inhibition of MAO-A (unknown origin) incubated for 10 mins followed by MAO substrate addition and measured after 60 mins by luciferin-based luminescence assay
T1 sequence (P21397 whole entry): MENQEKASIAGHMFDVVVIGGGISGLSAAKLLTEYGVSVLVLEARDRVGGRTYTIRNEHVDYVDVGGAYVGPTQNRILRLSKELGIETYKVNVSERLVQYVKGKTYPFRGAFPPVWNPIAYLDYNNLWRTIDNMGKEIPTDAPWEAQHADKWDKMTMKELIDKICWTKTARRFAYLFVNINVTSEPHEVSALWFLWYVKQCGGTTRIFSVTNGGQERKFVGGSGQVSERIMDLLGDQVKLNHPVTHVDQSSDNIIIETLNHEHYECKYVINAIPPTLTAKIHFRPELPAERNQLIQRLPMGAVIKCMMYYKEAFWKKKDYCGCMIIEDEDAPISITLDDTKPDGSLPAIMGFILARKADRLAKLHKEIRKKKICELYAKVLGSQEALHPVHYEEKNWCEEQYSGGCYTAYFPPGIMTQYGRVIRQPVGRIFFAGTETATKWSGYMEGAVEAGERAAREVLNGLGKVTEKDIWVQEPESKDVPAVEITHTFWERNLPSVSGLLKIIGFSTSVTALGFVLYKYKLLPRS

[3] = Retention time of the compound by HPLC method; type: physicochemical
[4] = Drug concentration in cynomolgus monkey plasma at 0.1 mg/kg, iv measured after 5 mins by LC-MS/MS analysis; type: ADME, organism-based, Macaca fascicularis
[5] = target: Lysine-specific histone demethylase 1A (Homo sapiens) (UniProt O60341); experiment: Binding affinity to human recombinant LSD1 assessed as compound-FAD adduct formation at 1 mM incubated for 1 hr by LC-MS analysis
[6] = Volume of distribution at steady state in cynomolgus monkey at 0.1 mg/kg, iv by LC-MS/MS analysis; type: ADME, organism-based, Macaca fascicularis; conditions: in vivo, read-out: Vdss
[7] = target: P-glycoprotein (ABCB1, MDR1) (Homo sapiens, UniProt P08183); experiment: Substrate activity at p-glycoprotein (unknown origin) expressed in pig LLC-PK1 cells coexpressing MDR1 assessed as efflux ratio at apparent permeability across basolateral to apical side to apparent permeability across apical to basolateral side at 1 uM measured after 1 hr by LC-MS/MS analysis; type: ADME, cell-based
Chain of P-glycoprotein (ABCB1, MDR1) (P08183 whole entry): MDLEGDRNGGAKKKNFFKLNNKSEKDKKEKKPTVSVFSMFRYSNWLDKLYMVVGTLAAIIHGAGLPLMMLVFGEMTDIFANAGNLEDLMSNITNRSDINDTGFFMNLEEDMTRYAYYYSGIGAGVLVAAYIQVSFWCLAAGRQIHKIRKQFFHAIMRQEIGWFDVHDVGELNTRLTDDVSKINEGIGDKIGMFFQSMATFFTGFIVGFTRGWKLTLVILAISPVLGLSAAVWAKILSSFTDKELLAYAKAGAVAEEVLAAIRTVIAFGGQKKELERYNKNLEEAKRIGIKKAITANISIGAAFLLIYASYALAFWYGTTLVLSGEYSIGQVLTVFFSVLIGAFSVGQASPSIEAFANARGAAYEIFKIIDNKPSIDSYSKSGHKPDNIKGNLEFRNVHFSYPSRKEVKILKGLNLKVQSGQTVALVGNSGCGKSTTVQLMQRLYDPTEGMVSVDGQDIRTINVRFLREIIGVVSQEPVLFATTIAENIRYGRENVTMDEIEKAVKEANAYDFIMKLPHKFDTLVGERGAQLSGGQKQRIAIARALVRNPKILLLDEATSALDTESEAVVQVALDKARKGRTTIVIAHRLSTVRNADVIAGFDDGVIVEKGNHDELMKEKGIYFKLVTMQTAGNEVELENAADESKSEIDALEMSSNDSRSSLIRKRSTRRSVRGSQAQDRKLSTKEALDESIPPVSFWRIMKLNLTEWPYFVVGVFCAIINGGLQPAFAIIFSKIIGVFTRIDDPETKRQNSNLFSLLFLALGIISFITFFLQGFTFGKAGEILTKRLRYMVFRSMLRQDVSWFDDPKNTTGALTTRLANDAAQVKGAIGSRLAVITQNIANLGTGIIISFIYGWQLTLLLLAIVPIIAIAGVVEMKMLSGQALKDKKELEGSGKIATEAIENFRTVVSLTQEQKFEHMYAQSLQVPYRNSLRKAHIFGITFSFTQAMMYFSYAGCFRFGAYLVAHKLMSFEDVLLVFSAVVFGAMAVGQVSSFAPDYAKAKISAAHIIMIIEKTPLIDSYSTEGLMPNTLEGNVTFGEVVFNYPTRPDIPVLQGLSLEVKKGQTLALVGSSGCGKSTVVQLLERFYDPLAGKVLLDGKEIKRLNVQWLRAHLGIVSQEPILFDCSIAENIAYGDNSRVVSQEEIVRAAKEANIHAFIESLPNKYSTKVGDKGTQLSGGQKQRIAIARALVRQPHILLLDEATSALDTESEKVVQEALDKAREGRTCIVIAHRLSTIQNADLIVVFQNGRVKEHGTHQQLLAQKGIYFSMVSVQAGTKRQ

[8] = Total clearance in cynomolgus monkey at 0.1 mg/kg, iv by LC-MS/MS analysis; type: ADME, organism-based, Macaca fascicularis; conditions: in vivo
[9] = AUC(0 to 6 hrs) in cynomolgus monkey at 0.1 mg/kg, iv by LC-MS/MS analysis; type: ADME, organism-based, Macaca fascicularis; design: dose 0.1 mg/kg, route iv; conditions: in vivo
[10] = Half life in cynomolgus monkey at 0.1 mg/kg, iv by LC-MS/MS analysis; type: ADME, organism-based, Macaca fascicularis; conditions: in vivo
[11] = Lipophilicity, logD of the compound at pH 7.4; type: physicochemical; conditions: buffer
[12] = Drug metabolism in cryopreserved monkey hepatocytes assessed as N-acetylglucosamine conjugation-mediated metabolite formation measured for 6 hrs by HPLC-UV and LC/MS analysis; type: ADME, cell-based, Macaca mulatta, Hepatocyte; conditions: rhesus monkey
[13] = Drug metabolism in cryopreserved human hepatocytes assessed as hydrolysis-mediated 6-fluoro-4-methylnicotinic acid formation measured for 6 hrs by HPLC-UV and LC/MS analysis; type: ADME, cell-based, Hepatocyte
[14] = Drug metabolism in cryopreserved rat hepatocytes assessed as hydrolysis-mediated 6-fluoro-4-methylnicotinic acid formation measured for 6 hrs by HPLC-UV and LC/MS analysis; type: ADME, cell-based, Hepatocyte
[15] = Drug metabolism in cryopreserved rat hepatocytes assessed as N-acetylglucosamine conjugation-mediated metabolite formation measured for 6 hrs by HPLC-UV and LC/MS analysis; type: ADME, cell-based, Hepatocyte
[16] = Drug metabolism in Sprague-Dawley rat brain assessed as fluorine-containing metabolite level in cortex at 10 mg/kg, iv measured after 1 to 4 hrs by HPLC-UV and LC/MS analysis; type: ADME, organism-based; conditions: in vivo, time 1-4 hrs
[17] = target: T2, Amine oxidase [flavin-containing] B (Homo sapiens, UniProt P27338); experiment: Inhibition of MAO-B (unknown origin) incubated for 10 mins followed by MAO substrate addition and measured after 60 mins by luciferin-based luminescence assay
T2 sequence (P27338 whole entry): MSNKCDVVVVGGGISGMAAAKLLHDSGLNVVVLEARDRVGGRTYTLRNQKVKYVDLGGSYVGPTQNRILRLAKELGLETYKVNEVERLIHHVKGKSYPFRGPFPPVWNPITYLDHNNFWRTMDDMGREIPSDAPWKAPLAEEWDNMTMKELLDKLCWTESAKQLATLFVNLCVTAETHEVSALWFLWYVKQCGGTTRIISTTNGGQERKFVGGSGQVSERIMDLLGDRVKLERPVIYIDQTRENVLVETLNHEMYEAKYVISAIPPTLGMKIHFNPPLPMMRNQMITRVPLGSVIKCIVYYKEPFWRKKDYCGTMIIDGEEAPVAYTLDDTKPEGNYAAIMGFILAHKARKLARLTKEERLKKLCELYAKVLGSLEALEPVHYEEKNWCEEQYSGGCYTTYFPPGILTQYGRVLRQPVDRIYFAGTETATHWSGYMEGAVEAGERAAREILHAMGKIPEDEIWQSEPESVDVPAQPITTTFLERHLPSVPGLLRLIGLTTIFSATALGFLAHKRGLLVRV

[18] = Drug metabolism in cryopreserved human hepatocytes assessed as N-acetylglucosamine conjugation-mediated metabolite formation measured for 6 hrs by HPLC-UV and LC/MS analysis; type: ADME, cell-based, Hepatocyte
[19] = Drug metabolism in cryopreserved monkey hepatocytes assessed as hydrolysis-mediated 6-fluoro-4-methylnicotinic acid formation measured for 6 hrs by HPLC-UV and LC/MS analysis; type: ADME, cell-based, Macaca mulatta, Hepatocyte; conditions: rhesus monkey
LSD1/CoREST complex = LSD1/CoREST complex (Homo sapiens, UniProt O60341); experiment: Inhibition of human recombinant LSD1/CoREST using ART(mK)QTARKSTGGKAPRKQLAGGK-biotin as substrate incubated for 15 mins; type: protein-complex assay
[20] = Unbound drug concentration in Sprague-Dawley rat brain homogenate assessed as free fraction ratio; type: ADME, tissue-based
[21] = Unbound drug concentration in Sprague-Dawley rat plasma assessed as free fraction ratio; type: ADME, cell-free
[22] = Drug metabolism in Sprague-Dawley rat brain assessed as N-(6-fluoropyridin-3-yl)-N-methylacetamide level in cortex at 1 mg/kg, iv measured after 1 hr by HPLC-UV and LC/MS analysis; type: ADME, organism-based; conditions: in vivo
[23] = Drug metabolism in Sprague-Dawley rat brain assessed as N-(6-fluoropyridin-3-yl)-N-methylacetamide level in cortex at 1 mg/kg, iv measured after 4 hrs by HPLC-UV and LC/MS analysis; type: ADME, organism-based; conditions: in vivo
[24] = Drug uptake in Sprague-Dawley rat brain at 1 mg/kg, iv measured after 4 hrs by LC-MS analysis; type: ADME, organism-based; conditions: in vivo, BLD = below limit of detection
[25] = Drug uptake in rhesus monkey anterior cingulate cortex administered intravenously and measured after 90 to 180 mins by PET/MRI imaging analysis; type: ADME, tissue-based, Macaca mulatta; conditions: in vivo, iv, time 90-180 min
[26] = Drug uptake in rhesus monkey caudate nucleus administered intravenously and measured after 90 to 180 mins by PET/MRI imaging analysis; type: ADME, tissue-based, Macaca mulatta; conditions: in vivo, iv, time 90-180 min
[27] = Drug uptake in rhesus monkey cerebellum administered intravenously pretreated with N-(4-[(1S,2R)/(1R,2S)-2-[(Cyclopropylmethyl)amino)cyclopropyl)phenyl)-6-fluoro-4-methylpyridine-3-carboxamide followed by compound addition and measured after 90 to 180 mins by PET/MRI imaging analysis; type: ADME, Macaca mulatta; conditions: in vivo, iv, time 90-180 min
[28] = Drug uptake in rhesus monkey frontal lobe administered intravenously and measured after 90 to 180 mins by PET/MRI imaging analysis; type: ADME, tissue-based, Macaca mulatta; conditions: in vivo, iv, time 90-180 min
[29] = Drug uptake in rhesus monkey pons administered intravenously and measured after 90 to 180 mins by PET/MRI imaging analysis; type: ADME, tissue-based, Macaca mulatta; conditions: in vivo, iv, time 90-180 min
[30] = Drug uptake in rhesus monkey cerebellum administered intravenously and measured after 90 to 180 mins by PET/MRI imaging analysis; type: ADME, tissue-based, Macaca mulatta; conditions: in vivo, iv, time 90-180 min
[31] = Drug metabolism in Sprague-Dawley rat brain assessed as 6-fluoronicotinic acid level in cortex at 10 mg/kg, iv measured after 1 hr by HPLC-UV and LC/MS analysis; type: ADME, organism-based; conditions: in vivo
[32] = Drug metabolism in Sprague-Dawley rat brain assessed as 6-fluoronicotinic acid formation in cortex at 10 mg/kg, iv measured after 4 hrs by HPLC-UV and LC/MS analysis; type: ADME, organism-based; conditions: in vivo
[33] = Drug uptake in Sprague-Dawley rat brain at 1 mg/kg, iv measured after 1 to 24 hrs by LC-MS analysis; type: ADME, organism-based; conditions: in vivo, time 1-24 hrs
[34] = Drug metabolism in Sprague-Dawley rat brain assessed as N-(6-fluoro-4-methylpyridin-3-yl)acetamide level in cortex at 10 mg/kg, iv measured after 4 hrs by HPLC-UV and LC/MS analysis; type: ADME, organism-based; conditions: in vivo
[35] = Drug metabolism in Sprague-Dawley rat brain assessed as N-(6-fluoro-4-methylpyridin-3-yl)acetamide level in cortex at 10 mg/kg, iv measured after 1 hr by HPLC-UV and LC/MS analysis; type: ADME, organism-based; conditions: in vivo

Work on `Cc1cc(F)ncc1C(=O)Nc1ccc([C@@H]2C[C@H]2NCC2CC2)cc1` yielded a Ratio [1] of 0.67, an IC50 [2] greater than 100000 nM and a Retention_time [3] of 11.85 min. For the same molecule, the concentration at 5 min [4] was 31.2 ng/mL, the Activity [5] was “Active” and the Vd [6] was 3.13 L/kg. For the same molecule, the efflux ratio at 1 h, 1 µM [7] was 0.91, the clearance [8] was 32.5 mL/min/kg and the AUC(0-t) [9] was 51.6 ng·h/mL. The half-life [10] was 1.75 h, the logD [11] was 1.62 and the Drug metabolism [12] was “Metabolite_Detected”. For the same molecule, the Drug metabolism [13] was “Metabolite_Notdetected”, the Drug metabolism [14] was “Metabolite_Notdetected” and the Drug metabolism [15] was “Metabolite_Notdetected”. For the same molecule, the Drug metabolism [16] was 0.21 nmol/g, the IC50 [17] was 33000 nM and the Drug metabolism [18] was “Metabolite_Notdetected”. The Drug metabolism [19] was “Metabolite_Notdetected”, the IC50 (LSD1/CoREST complex) was 7.2 nM and the Ratio [20] was 0.277. The Ratio [21] was 0.69.
In the case of `CN(C(=O)c1ccc([C@@H]2C[C@H]2NCC2CC2)cc1)c1ccc(F)nc1`, the Drug metabolism [22] is reported as 0.87 nmol/g, the Drug metabolism [23] is reported as 1.16 nmol/g and the Drug uptake [24] is reported as “Bld”.
In the case of `Cc1cc([18F])ncc1C(=O)Nc1ccc([C@@H]2C[C@H]2NCC2CC2)cc1`, the Drug uptake [25] is reported as “Active”, the Drug uptake [26] is reported as “Active” and the Drug uptake [27] is reported as “Not Active”. The Drug uptake [28] was “Active”, the Drug uptake [29] was “Active” and the Drug uptake [30] was “Active”.
For `O=C(Nc1ccc([C@@H]2C[C@H]2NCC2CC2)cc1)c1ccc(F)nc1`, the Drug metabolism [31] was 0.28 nmol/g, the Drug metabolism [32] was “Metabolite_Notdetected” and the efflux ratio at 1 h, 1 µM [7] was 0.8. For the same molecule, the IC50 (LSD1/CoREST complex) was 10 nM.
For `CC(=O)N(C)c1ccc(F)nc1`, the Drug uptake [33] was “Active”.
With `Cc1cc(F)ncc1N(C)C(=O)c1ccc([C@@H]2C[C@H]2NCC2CC2)cc1` the Drug metabolism [34] was 0.24 nmol/g, the efflux ratio at 1 h, 1 µM [7] was 1.4 and the Drug metabolism [35] was 0.1 nmol/g. It also gave an IC50 (LSD1/CoREST complex) of 3.9 nM.
For `Cc1nc(F)ccc1N(C)C(=O)c1ccc([C@@H]2C[C@H]2NCC2CC2)cc1`, the efflux ratio at 1 h, 1 µM [7] was 1.3 and the IC50 (LSD1/CoREST complex) was 5.4 nM.
`O=C(c1ccc([C@@H]2C[C@H]2NCC2CC2)cc1)N1CCC(F)CC1` showed an efflux ratio at 1 h, 1 µM [7] of 0.66 and an IC50 (LSD1/CoREST complex) of 24 nM.
`Cc1cc(F)ncc1C(=O)O` showed a Retention_time [3] of 2.19 min.
In the case of `CN(C(=O)c1ccc(CCC(=O)O)cc1)c1ccc(F)nc1`, the Drug uptake [33] is reported as “Not Active”.
Molecule `O=C(c1ccc([C@@H]2C[C@H]2NCC2CC2)cc1)N1CC(F)C1` has an efflux ratio at 1 h, 1 µM [7] of 0.64 and an IC50 (LSD1/CoREST complex) of 64 nM.
